In patent publication US12077503B2, “Substituted cyclic amides and their use as herbicides” (FMC CORPORATION, priority 2015, dated 2024):

Columns and labels:
Format in all cases: in vivo
[1] = tested on: barnyardgrass (Echinochloa crus-galli); experiment: Test A preemergence; settings: for Barnyardgrass plant response rating (0 to 100 scale, 0 is no effect, 100 is complete control): visual injury approx. 10 d
Outline: (§1)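 Each rating is a visual injury score from 0 to 100 given about 10 d after treatment, judged against untreated controls kept alongside in the greenhouse. In loam soil–sand blend, seeds got a preemergence directed soil spray, while postemergence plants were 2 to 10 cm tall at spraying.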

[2] = tested on: ryegrass, Italian (Italian ryegrass, Lolium multiflorum); experiment: Test A preemergence; settings: for Ryegrass, Italian plant response rating (0 to 100 scale, 0 is no effect, 100 is complete control): visual injury approx. 10 d
Outline: as §1

[3] = tested on: pigweed (Amaranthus retroflexus); experiment: Test A preemergence; settings: for Pigweed plant response rating (0 to 100 scale, 0 is no effect, 100 is complete control): visual injury approx. 10 d
[4] = tested on: giant foxtail (Setaria faberii); experiment: Test A preemergence; settings: for Foxtail, Giant plant response rating (0 to 100 scale, 0 is no effect, 100 is complete control): visual injury approx. 10 d
Outline: as §1

[5] = tested on: ragweed (common ragweed, Ambrosia elatior); experiment: Test A preemergence; settings: for Ragweed plant response rating (0 to 100 scale, 0 is no effect, 100 is complete control): visual injury approx. 10 d
Outline: as §1

Kochia (Kochia scoparia) [6] = experiment: Test A preemergence; settings: for Kochia plant response rating (0 to 100 scale, 0 is no effect, 100 is complete control): visual injury approx. 10 d
Outline: as §1

rice (Oryra sativa) = experiment: Test B flooded paddy test; settings: Flood, 250 g ai/ha; 0 to 100 scale where 0 is no effect and 100 is complete control; 13 to 15 d
Outline: (§2)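 Percent control, visually estimated after 13–15 d in the greenhouse on a 0–100 basis, compares treated pots with untreated ones; compound was put into paddy water 3 cm above the soil when plants had two leaves.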

[7] = tested on: sedge, umbrella (small-flower umbrella sedge, Cyperus difformis); experiment: Test B flooded paddy test; settings: Flood, 250 g ai/ha; 0 to 100 scale where 0 is no effect and 100 is complete control; 13 to 15 d
Outline: as §2

[8] = tested on: barnyardgrass (Echinochloa crus-galli); experiment: Test B flooded paddy test; settings: Flood, 250 g ai/ha; 0 to 100 scale where 0 is no effect and 100 is complete control; 13 to 15 d
Outline: as §2

[9] = tested on: ducksalad (Heteranthera limosa); experiment: Test B flooded paddy test; settings: Flood, 250 g ai/ha; 0 to 100 scale where 0 is no effect and 100 is complete control; 13 to 15 d
Outline: as §2

corn (Zea mays) = experiment: Test A postemergence
Outline: as §1

[10] = tested on: blackgrass (Alopecurus myosuroides); experiment: Test A postemergence
Outline: as §1

[11] = tested on: barnyardgrass (Echinochloa crus-galli); experiment: Test A postemergence
Outline: as §1

[12] = tested on: ryegrass, Italian (Italian ryegrass, Lolium multiflorum); experiment: Test A postemergence
Outline: as §1

[13] = tested on: pigweed (Amaranthus retroflexus); experiment: Test A postemergence
Outline: as §1

[14] = tested on: giant foxtail (Setaria faberii); experiment: Test A postemergence
Outline: as §1

[15] = tested on: ragweed (common ragweed, Ambrosia elatior); experiment: Test A postemergence
Outline: as §1

[16] = tested on: wheat (Triticum aestivum); experiment: Test A postemergence
Outline: as §1

Kochia (Kochia scoparia) [17] = experiment: Test A postemergence
Outline: as §1

[18] = tested on: Galium (catchweed bedstraw, Galium aparine); experiment: Test A postemergence
Outline: as §1

[19] = 125 g ai/ha, preemergence, 0 to 100 scale (0 no effect, 100 complete control)
[20] = 125 g ai/ha, postemergence, visual injury rating on 0 to 100 scale (0 no effect, 100 complete control), approx. 10 d
[21] = 500 g ai/ha, postemergence, 0 to 100 scale, 0 no effect, 100 complete control
[22] = 125 g ai/ha, Preemergence, visual injury after approximately 10 d, 0 to 100 scale where 0 is no effect and 100 is complete control
[23] = 500 g ai/ha, preemergence, 0 to 100 scale, 0 = no effect, 100 = complete control
[24] = 125 g ai/ha, postemergence, visual rating after approx. 10 d, 0 to 100 scale (0 no effect, 100 complete control)
[25] = 500 g ai/ha, postemergence, visual injury, 0 to 100 scale (0 no effect, 100 complete control), approx. 10 d
[26] = Postemergence, 500 g ai/ha, 0 to 100 scale where 0 is no effect and 100 is complete control

Cc1c(F)ccc(NC(=O)C2C(=O)NCC2c2cccc(OC(F)(F)C(F)F)c2)c1F (stereo not drawn) [Compound 460]
90: Plant response rating, Foxtail, Giant [4, 19] | Foxtail, Giant plant response rating (0 to 100 scale, 0 is no effect, 100 is complete control) ([4]; Preemergence, 500 g ai/ha) | Foxtail, Giant plant response rating [14, 20]
70: Plant response rating, Barnyardgrass [11, 21]
30: Plant response rating, Pigweed [3, 19] | Pigweed plant response rating (0 to 100 scale, 0 is no effect, 100 is complete control) ([3]; Preemergence, 500 g ai/ha) | Ryegrass, Italian plant response rating [12, 20] | Plant response rating, Ryegrass, Italian [12, 21] | Plant response rating, Kochia (Kochia (Kochia scoparia) [17]; [21])
100: Plant response rating, Ducksalad [9]
80: Plant response rating, Barnyardgrass [1, 19] | Barnyardgrass plant response rating (0 to 100 scale, 0 is no effect, 100 is complete control) ([1]; Preemergence, 500 g ai/ha) | Plant response rating, Foxtail, Giant [14, 21]
40: Plant response rating, Ryegrass, Italian [2, 19] | Kochia plant response rating (0 to 100 scale, 0 is no effect, 100 is complete control) (Kochia (Kochia scoparia) [6]; Preemergence, 500 g ai/ha) | Plant response rating, Barnyardgrass [8] | Plant response rating, Corn (corn (Zea mays); [21]) | Plant response rating, Blackgrass [10, 21] | Plant response rating, Pigweed [13, 21]
20: Ragweed plant response rating (0 to 100 scale, 0 is no effect, 100 is complete control) ([5]; Preemergence, 500 g ai/ha) | Corn plant response rating (corn (Zea mays); [20]) | Blackgrass plant response rating [10, 20] | Pigweed plant response rating [13, 20] | Plant response rating, Wheat [16, 21]
0: Plant response rating, Ragweed [5, 19] | Plant response rating, Kochia (Kochia (Kochia scoparia) [6]; [19]) | Plant response rating, Rice (rice (Oryra sativa)) | Plant response rating, Sedge, Umbrella [7] | Ragweed plant response rating [15, 20] | Plant response rating, Ragweed [15, 21] | Wheat plant response rating [16, 20] | Kochia plant response rating (Kochia (Kochia scoparia) [17]; [20])
60: Ryegrass, Italian plant response rating (0 to 100 scale, 0 is no effect, 100 is complete control) ([2]; Preemergence, 500 g ai/ha) | Barnyardgrass plant response rating [11, 20] | Plant response rating, Galium [18, 21]
50: Galium plant response rating [18, 20]

Cc1ccc(C2CNC(=O)C2C(=O)Nc2cccc(F)c2F)cc1C(F)(F)F (stereo not drawn) [Compound 642]
90: Plant response rating, Barnyardgrass [1, 22] | Plant response rating, Barnyardgrass [1, 23] | Plant response rating, Foxtail, Giant [4, 22] | Plant response rating, Foxtail, Giant [4, 23] | Plant response rating, Barnyardgrass [11, 25]
30: Plant response rating, Rice (rice (Oryra sativa)) | Plant response rating, Barnyardgrass [8]
20: Plant response rating, Blackgrass [10, 24] | Plant response rating, Pigweed [13, 25] | Plant response rating, Foxtail, Giant [14, 24] | Plant response rating, Wheat [16, 25] | Plant response rating, Kochia (Kochia (Kochia scoparia) [17]; [24])
50: Plant response rating, Ryegrass, Italian [2, 22] | Plant response rating, Pigweed [3, 22] | Plant response rating, Ragweed [5, 23] | Plant response rating, Corn (corn (Zea mays); [24]) | Plant response rating, Ryegrass, Italian [12, 25] | Plant response rating, Kochia (Kochia (Kochia scoparia) [17]; [25]) | Plant response rating, Galium [18, 24]
70: Plant response rating, Corn (corn (Zea mays); [25]) | Plant response rating, Barnyardgrass [11, 24] | Plant response rating, Foxtail, Giant [14, 25] | Plant response rating, Galium [18, 25]
80: Plant response rating, Ryegrass, Italian [2, 23]
100: Plant response rating, Ducksalad [9]
40: Plant response rating, Kochia (Kochia (Kochia scoparia) [6]; [22]) | Plant response rating, Blackgrass [10, 25] | Plant response rating, Ryegrass, Italian [12, 24] | Plant response rating, Ragweed [15, 25]
0: Plant response rating, Ragweed [5, 22] | Plant response rating, Sedge, Umbrella [7] | Plant response rating, Pigweed [13, 24] | Plant response rating, Ragweed [15, 24] | Plant response rating, Wheat [16, 24]
60: Plant response rating, Pigweed [3, 23] | Plant response rating, Kochia (Kochia (Kochia scoparia) [6]; [23])

O=C1NCC(c2cc(C(F)(F)F)ccc2F)C1C(=O)Nc1ccc(F)cc1F (stereo not drawn) [Compound 595]
60: Plant response rating, Corn (corn (Zea mays); [26])
80: Plant response rating, Ducksalad [9]
70: Plant response rating, Sedge, Umbrella [7]
50: Kochia plant response rating (0 to 100 scale, 0 is no effect, 100 is complete control) (Kochia (Kochia scoparia) [6]; Preemergence, 500 g ai/ha) | Plant response rating, Barnyardgrass [8] | Plant response rating, Wheat [16, 26]
0: Plant response rating, Ragweed [5, 22] | Plant response rating, Ragweed [15, 24] | Plant response rating, Ragweed [15, 26] | Plant response rating, Kochia (Kochia (Kochia scoparia) [17]; [24]) | Plant response rating, Galium [18, 24]
30: Plant response rating, Pigweed [3, 22] | Pigweed plant response rating (0 to 100 scale, 0 is no effect, 100 is complete control) ([3]; Preemergence, 500 g ai/ha) | Ragweed plant response rating (0 to 100 scale, 0 is no effect, 100 is complete control) ([5]; Preemergence, 500 g ai/ha) | Plant response rating, Corn (corn (Zea mays); [24]) | Plant response rating, Pigweed [13, 26] | Plant response rating, Wheat [16, 24] | Plant response rating, Kochia (Kochia (Kochia scoparia) [17]; [26])
20: Plant response rating, Ryegrass, Italian [2, 22] | Plant response rating, Rice (rice (Oryra sativa)) | Plant response rating, Blackgrass [10, 24] | Plant response rating, Ryegrass, Italian [12, 24] | Plant response rating, Pigweed [13, 24] | Plant response rating, Galium [18, 26]
40: Ryegrass, Italian plant response rating (0 to 100 scale, 0 is no effect, 100 is complete control) ([2]; Preemergence, 500 g ai/ha) | Plant response rating, Kochia (Kochia (Kochia scoparia) [6]; [22]) | Plant response rating, Blackgrass [10, 26] | Plant response rating, Ryegrass, Italian [12, 26]
90: Plant response rating, Barnyardgrass [1, 22] | Barnyardgrass plant response rating (0 to 100 scale, 0 is no effect, 100 is complete control) ([1]; Preemergence, 500 g ai/ha) | Plant response rating, Foxtail, Giant [4, 22] | Foxtail, Giant plant response rating (0 to 100 scale, 0 is no effect, 100 is complete control) ([4]; Preemergence, 500 g ai/ha) | Plant response rating, Barnyardgrass [11, 24] | Plant response rating, Barnyardgrass [11, 26] | Plant response rating, Foxtail, Giant [14, 24] | Plant response rating, Foxtail, Giant [14, 26]
